Laboratory results as given in publication PMC3951388, “Structure-Function Relationship of a Plant NCS1 Member – Homology Modeling and Mutagenesis Identified Residues Critical for Substrate Specificity of PLUTO, a Nucleobase Transporter from Arabidopsis” (PLoS ONE, 2014).
Entries after “also recorded” stand apart in the source; their conditions may differ.

Key:
[1] = molecular target: T1, PLUTO (Arabidopsis thaliana, UniProt Q9LZD0); conditions: full length PLUTO in E. coli uraA insertion mutants; ref [4]; cited from earlier work
T1 construct: Heterologous expression of the full length PLUTO Arabidopsis gene in Escherichia coli uraA insertion mutants; expressed in transfected cells; host or cells: Escherichia coli JD23420 (uraA transposon insertion strain), vector pTAC-MAT-Tag-2
T1 sequence (Q9LZD0 1-599): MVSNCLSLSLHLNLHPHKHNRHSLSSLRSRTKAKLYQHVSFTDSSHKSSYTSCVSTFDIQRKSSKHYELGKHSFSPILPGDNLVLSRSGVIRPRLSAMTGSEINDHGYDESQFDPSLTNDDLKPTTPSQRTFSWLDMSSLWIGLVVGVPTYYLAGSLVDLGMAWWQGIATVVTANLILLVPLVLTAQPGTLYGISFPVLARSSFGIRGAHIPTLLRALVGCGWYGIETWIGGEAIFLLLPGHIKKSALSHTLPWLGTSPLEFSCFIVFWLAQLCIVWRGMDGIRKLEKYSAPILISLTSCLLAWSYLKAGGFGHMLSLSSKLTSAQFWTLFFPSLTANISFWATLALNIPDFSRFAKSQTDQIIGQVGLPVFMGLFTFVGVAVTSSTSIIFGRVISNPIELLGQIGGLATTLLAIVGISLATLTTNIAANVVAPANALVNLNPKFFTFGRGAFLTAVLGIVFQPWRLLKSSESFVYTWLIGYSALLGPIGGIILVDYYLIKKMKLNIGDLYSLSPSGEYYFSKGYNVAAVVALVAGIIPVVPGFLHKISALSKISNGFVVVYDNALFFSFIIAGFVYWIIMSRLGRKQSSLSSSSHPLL

[2] = molecular target: T2, PLUTO E227K (Arabidopsis thaliana, UniProt Q9LZD0, E227K); assay: Radiolabelled nucleobase uptake, PLUTO mutant in E. coli lacking uraA; type: cell-based; conditions: 20 μM, 5 min
T2 construct: Heterologous expression of the full length PLUTO Arabidopsis gene in Escherichia coli uraA insertion mutants; expressed in transfected cells; host or cells: Escherichia coli JD23420 (uraA transposon insertion strain), vector pTAC-MAT-Tag-2
T2 sequence (Q9LZD0 whole entry E227K): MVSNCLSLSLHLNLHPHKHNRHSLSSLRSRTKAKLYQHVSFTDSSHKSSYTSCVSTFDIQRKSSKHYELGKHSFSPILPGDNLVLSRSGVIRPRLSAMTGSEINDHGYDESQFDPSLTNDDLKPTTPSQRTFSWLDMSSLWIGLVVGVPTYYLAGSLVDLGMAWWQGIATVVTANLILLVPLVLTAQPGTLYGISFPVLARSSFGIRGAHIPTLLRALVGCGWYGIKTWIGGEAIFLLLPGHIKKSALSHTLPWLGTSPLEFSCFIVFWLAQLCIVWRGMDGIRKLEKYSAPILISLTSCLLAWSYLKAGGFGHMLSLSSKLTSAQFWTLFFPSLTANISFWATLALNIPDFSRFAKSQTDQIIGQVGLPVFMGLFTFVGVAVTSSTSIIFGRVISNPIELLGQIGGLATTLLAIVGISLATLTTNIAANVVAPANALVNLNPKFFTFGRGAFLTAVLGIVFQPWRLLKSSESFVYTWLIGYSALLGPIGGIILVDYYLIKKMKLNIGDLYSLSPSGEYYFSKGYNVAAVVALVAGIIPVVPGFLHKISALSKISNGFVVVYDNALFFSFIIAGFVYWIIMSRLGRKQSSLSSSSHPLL
From the text: (§1) For the uptake experiments, PLUTO was heterologously expressed in an Escherichia coli transposon insertion strain lacking the endogenous uracil permease uraA (JD23420), obtained from the National Institute of Genetics (Shizuoka, Japan; http://www.shigen.nig.ac.jp/ecoli/strain/top/top.jsp). PLUTO and site directed mutants were cloned in the bacterial expression vector pTAC-MAT-Tag-2 (Sigma Aldrich, Deisenhofen, Germany) as previously described. After the transformation of the cells with the PLUTO expression plasmids, the cells were grown at 37°C and 170 rpm in YT medium containing ampicillin and kanamycin. The expression of PLUTO and site directed mutants was initiated by the addition of isopropyl β-D-thiogalactopyranosid (IPTG) with a final concentration of 0.02% at an OD600 of 0.5. The cells were grown for 2 h after induction, collected by centrifugation for 5 min at 4500 g and 4°C and resuspended with potassium phosphate buffer (50 mM, pH 7.0) to an OD600 of 5. The cells were stored on ice until use.
(§2) Site directed mutagenesis was achieved by using the QuickChange II-E Site directed mutagenesis kit (Stratagene) according to the manufacturer's instructions.
(§3) The uptake of nucleobases with concentrations of 20 μM was performed at 37°C and permanent shaking at 200 rpm. For the analysis of PLUTO mutants the cells were incubated for 5 min (2 min for competition studies) and the uptake was terminated by vacuum filtration through a membrane filter (0.45 μm pore size; Whatman). The cells were washed three times with 1 ml ice cold potassium phosphate buffer (50 mM, pH 7.0) to remove unimported nucleobases and the radioactivity was quantified in a Packard Tricarb 2500 scintillation counter after the addition of 4 mL scintillation cocktail (Roth). For the competition studies, all competitors were added with ten-fold excess (200 μM) to the uptake medium containing 20 μM radiolabelled nucleobases.

[3] = molecular target: T3, PLUTO E227Q T425A (Arabidopsis thaliana, UniProt Q9LZD0, E227Q/T425A); assay: as above; type: cell-based; conditions: 20 μM, 5 min
T3 construct: Heterologous expression of the full length PLUTO Arabidopsis gene in Escherichia coli uraA insertion mutants; expressed in transfected cells; host or cells: Escherichia coli JD23420 (uraA transposon insertion strain), vector pTAC-MAT-Tag-2
T3 sequence (Q9LZD0 whole entry E227Q/T425A): as the sequence (Q9LZD0 whole entry E227K) above, with K227Q, T425A counted along it
From the text: as §1, §2, §3

[4] = molecular target: T4, PLUTO E227Q G147Q (Arabidopsis thaliana, UniProt Q9LZD0, E227Q/G147Q); assay: as above; type: cell-based; conditions: 20 μM, 5 min
T4 construct: Heterologous expression of the full length PLUTO Arabidopsis gene in Escherichia coli uraA insertion mutants; expressed in transfected cells; host or cells: Escherichia coli JD23420 (uraA transposon insertion strain), vector pTAC-MAT-Tag-2
T4 sequence (Q9LZD0 whole entry G147Q/E227Q): as the sequence (Q9LZD0 whole entry E227K) above, with G147Q, K227Q counted along it
From the text: as §1, §2, §3

[5] = molecular target: T1, PLUTO; type: cell-based; conditions: wild type PLUTO, 200 μM competitor; for Effect of competitor on uracil transport: 20 μM [14C]-uracil; for Effect of competitor on uracil transport / Effect of competitor on guanine transport / Effect of competitor on adenine transport: 2 min; for Effect of competitor on guanine transport: 20 μM radiolabelled guanine; for Effect of competitor on adenine transport: 20 μM radiolabelled adenine
From the text: as §1, §3

[6] = molecular target: PLUTO E227Q (Arabidopsis thaliana, UniProt Q9LZD0, E227Q); assay: Radiolabelled nucleobase uptake, PLUTO mutant in E. coli lacking uraA; conditions: 20 μM, 5 min
Chain of PLUTO E227Q (Q9LZD0 whole entry E227Q): as the sequence (Q9LZD0 whole entry E227K) above, with K227Q counted along it
From the text: as §1, §2, §3

[7] = molecular target: PLUTO E227A (Arabidopsis thaliana, UniProt Q9LZD0, E227A); assay: as above; conditions: 20 μM, 5 min
Chain of PLUTO E227A (Q9LZD0 whole entry E227A): as the sequence (Q9LZD0 whole entry E227K) above, with K227A counted along it
From the text: as §1, §2, §3

[8] = molecular target: PLUTO E227D (Arabidopsis thaliana, UniProt Q9LZD0, E227D); conditions: mutant E227D; 20 μM; 5 min
Chain of PLUTO E227D (Q9LZD0 whole entry E227D): as the sequence (Q9LZD0 whole entry E227K) above, with K227D counted along it
From the text: as §1, §2, §3

[9] = molecular target: PLUTO G147Q (Arabidopsis thaliana, UniProt Q9LZD0, G147Q); conditions: mutant G147Q; 20 μM; 5 min
Chain of PLUTO G147Q (Q9LZD0 whole entry G147Q): as the sequence (Q9LZD0 whole entry E227K) above, with G147Q, K227E counted along it
From the text: as §1, §2, §3

[10] = molecular target: T5, PLUTO W223A (Arabidopsis thaliana, UniProt Q9LZD0, W223A); type: cell-based; conditions: mutant W223A, 200 μM competitor; for Effect of competitor on uracil transport: 20 μM uracil; for Effect of competitor on guanine transport: 20 μM guanine
T5 construct: Heterologous expression of the full length PLUTO Arabidopsis gene in Escherichia coli uraA insertion mutants; expressed in transfected cells; host or cells: Escherichia coli JD23420 (uraA transposon insertion strain), vector pTAC-MAT-Tag-2
T5 sequence (Q9LZD0 whole entry W223A): as the sequence (Q9LZD0 whole entry E227K) above, with W223A, K227E counted along it
From the text: as §1, §2, §3

[11] = molecular target: T1, PLUTO; assay: Radiolabelled nucleobase uptake, wild type PLUTO expressed in E. coli lacking uraA; type: cell-based; conditions: for Net import: wild type PLUTO (control), 5 min, corrected for uninduced cells
From the text: The cells were stored on ice until use.

[12] = molecular target: PLUTO V145A G147Q (Arabidopsis thaliana, UniProt Q9LZD0, G147Q/V145A); assay: Radiolabelled nucleobase uptake, PLUTO mutant in E. coli lacking uraA; conditions: 20 μM, 5 min
Chain of PLUTO V145A G147Q (Q9LZD0 whole entry V145A/G147Q): as the sequence (Q9LZD0 whole entry E227K) above, with V145A, G147Q, K227E counted along it
From the text: as §1, §2, §3

[13] = molecular target: PLUTO I226A (Arabidopsis thaliana, UniProt Q9LZD0, I226A); conditions: mutant I226A; 20 μM guanine, 200 μM competitor
Chain of PLUTO I226A (Q9LZD0 whole entry I226A): as the sequence (Q9LZD0 whole entry E227K) above, with I226A, K227E counted along it
From the text: as §1, §2, §3

[14] = molecular target: PLUTO F341A (Arabidopsis thaliana, UniProt Q9LZD0, F341A); conditions: mutant F341A; 20 μM guanine, 200 μM competitor
Chain of PLUTO F341A (Q9LZD0 whole entry F341A): as the sequence (Q9LZD0 whole entry E227K) above, with K227E, F341A counted along it
From the text: as §1, §2, §3

[15] = test system: Nc1ncnc2nc[nH]c12; assay: cells, lysate or membranes; conditions: corrected for uptake into uninduced cells, pH 7.0
[16] = test system: Nc1nc2nc[nH]c2c(=O)[nH]1; assay: cells, lysate or membranes; conditions: pH 7.0; 37.0 °C
[17] = test system: O=c1cc[nH]c(=O)[nH]1; assay: cells, lysate or membranes; conditions: corrected for uptake into uninduced cells, pH 7.0

## Nc1ncnc2[nH]cnc12 [adenine]
[1]
  Apparent affinity: 0.4 µM
[2]
  Residual transport compared to controls: 7%
[3]
  Residual transport compared to controls: 32%
[4]
  Residual transport compared to controls: ≤ 16%
[5]
  Effect of competitor on uracil transport: remained unaffected
  Effect of competitor on guanine transport: marked inhibitory effects
[6]
  Increase of transport versus control: 21%
[7]
  Residual transport compared to controls: 26%
[8]
  Transport: 2.1 nmol mg^−1 protein
  Transport rate relative to controls: 64%
[9]
  Impairment of transport versus control: 45%

## O=C1NC(=O)C(Cc2ccccc2)N1 (stereo not shown) [benzyl hydantoin]
[5]
  Transport by PLUTO judged by competitive binding analysis: no indication for a transport

## O=C1CCNC(=O)N1 [dihydrouracil]
[10]
  Effect of competitor on uracil transport: inhibited

## Nc1nc2nc[nH]c2c(=O)[nH]1 [guanine]
[11]; 20 μM
  Net import: 3.4 nmol mg^−1 protein
[1]
  Apparent affinity: 6.3 µM
[2]
  Residual transport compared to controls: 11%
[3]
  Residual transport compared to controls: 25%
[4]
  Residual transport compared to controls: ≤ 16%
[5]
  Effect of competitor on uracil transport: reduced
  Effect of competitor on adenine transport: not influenced
[12]
  Residual transport relative to controls: 12%
[6]
  Residual transport compared to controls: 21%
[7]
  Residual transport compared to controls: 4%
[8]
  Transport: 0.86 nmol mg^−1 protein
[9]
  Transport activity (in words): not significantly altered

## O=c1[nH]cnc2nc[nH]c12 [hypoxanthine]
[10]
  Effect of competitor on guanine transport: no longer able to inhibit
[5]
  Effect of competitor on guanine transport: affected; also recorded: marked inhibition
[13]
  Effect of competitor on guanine transport: inhibited
[14]
  Effect of competitor on guanine transport: inhibited

## O=C(O)c1cc(=O)[nH]c(=O)[nH]1 [orotate]
[11]; wild type PLUTO
  Transport substrate status in direct uptake studies: not identified as transport substrates
[5]
  Effect of competitor on uracil transport: affected

## Cc1ncc(C[n+]2csc(CCO)c2C)c(N)n1 [thiamine]
[10]
  Effect of competitor on uracil transport: inhibited

## Cc1c[nH]c(=O)[nH]c1=O [thymine]
[10]
  Effect of competitor on uracil transport: inhibited
[11]; wild type PLUTO
  Transport substrate status in direct uptake studies: not identified as transport substrates
[5]
  Effect of competitor on uracil transport: affected

## O=c1cc[nH]c(=O)[nH]1 [uracil]
[11]; 20 μM
  Net import: 3.2 nmol mg^−1 protein
[11]; wild type PLUTO, 20 μM, 5 min incubation, not corrected for uninduced cells
  Import into induced E. coli cells: 3.7±0.28 nmol mg^−1 protein
[1]
  Apparent affinity: 16.4 µM
[2]
  Transport activity (in words): completely extinguished
[4]
  Residual transport compared to controls: ≤ 16%
[5]
  Effect of competitor on adenine transport: not influenced
  Effect of competitor on guanine transport: marked inhibitory effects
[12]
  Increase of transport versus control: 50%
[6]
  Transport activity (in words): completely extinguished
[7]
  Transport activity (in words): completely extinguished
[8]
  Transport: 0.53 nmol mg^−1 protein
[9]
  Transport activity (in words): not significantly altered

## O=c1[nH]c(=O)c2[nH]c(=O)[nH]c2[nH]1 [uric acid]
[10]
  Effect of competitor on guanine transport: no longer able to inhibit
[5]
  Effect of competitor on guanine transport: affected

## PLUTO E227A (Arabidopsis thaliana; E227A)
[15]; other: mutant E227A
  Km: 0.21 (±0.05) μM

## PLUTO E227D (Arabidopsis thaliana; E227D)
[15]; other: mutant E227D
  Km: 0.97 (±0.21) μM
[16]
  Km: 3.70 (±0.72) μM
[17]; other: mutant E227D
  Km: 5.18 (±1.21) μM

## PLUTO E227Q (Arabidopsis thaliana; E227Q)
[15]; other: mutant E227Q
  Km: 0.22 (±0.05) μM

## PLUTO G147Q (Arabidopsis thaliana; G147Q)
[15]; other: mutant G147Q
  Km: 0.68 (±0.20) μM
[17]; other: mutant G147Q
  Km: 36.07 (±2,32) μM

## PLUTO V145A G147Q (Arabidopsis thaliana; G147Q/V145A)
[15]; other: mutant V145A G147Q
  Km: 0.81 (±0.17) μM
[17]; other: mutant V145A G147Q
  Km: 20.15 (±3.73) μM
